Assay results: the NIST ThermoML archive (doi:10.1021/je100704j)
Numbers after ± are expanded uncertainties.

Legend:
[1] = refractive index (Na D-line) (dimensionless); details: 293.15 K; 101.33 kPa; Liquid; Standard Abbe refractometry
[2] = 298.15 K; 101.33 kPa; Liquid; Vibrating tube method

Row | Structure (SMILES) | refractive index [1] | mass density [2] [kg/m3]
1 | CC(=O)CC(C)=O [2,4-pentanedione] | 1.4489 ± 0.0008 | 971.7 ± 0.2
2 | C1CCCCC1 [cyclohexane] | 1.4259 ± 0.0008 | 773.4 ± 0.2
3 | CCOC(C)=O [ethyl acetate] | 1.3701 ± 0.0008 | 894.6 ± 0.2
4 | O [water] | 1.3327 ± 0.0008 | 996.8 ± 0.2
